Measured values: ChEMBL document CHEMBL3301361, “Experimental in vitro DMPK and physicochemical data on a set of publicly disclosed compounds”
In brackets after ≈: the same amount, converted by molar mass.

Legend:
[1] = in vitro; details: human, hepatocytes
[2] = physchem; details: octan-1-ol/water, pH 7.4, LogD7.4
[3] = in vitro; details: hepatocytes
[4] = physchem; details: pH 7.4 buffer
[5] = in vitro; details: SD, HW or BN, rat, plasma
[6] = in vitro; details: human, plasma, PPB
[7] = in vitro; details: human

## C=CC(=O)Nc1cccc(Oc2nc(Nc3ccc(N4CCN(C)CC4)cc3OC)ncc2Cl)c1
[1]
  hepatocyte CLint: 3.31 µL/min/1e6 cells
[2]
  logD: 3.9
[3]
  hepatocyte CLint: 79.4 µL/min/1e6 cells
[4]
  solubility thermodynamic: 1 µM (≈ 0.495 µg/mL)

## COc1ccccc1-c1csc(-n2ncc(C#N)c2N)n1
[1]
  hepatocyte CLint: 55 µL/min/1e6 cells
[5]
  fraction unbound at 5 h: 0.529
[6]
  fraction unbound at 5 h: 0.591

## O=C(Nc1nc2ccccc2s1)c1ccccc1
[1]
  hepatocyte CLint: 77.6 µL/min/1e6 cells
[3]
  hepatocyte CLint: 64.6 µL/min/1e6 cells
[7]; microsomes
  microsomal CLint: > 150 µL/min/mg

## O=C(O)COc1ccc(C(F)(F)F)cc1CN1CCN(S(=O)(=O)c2ccccc2)CC1
[1]
  hepatocyte CLint: < 3 µL/min/1e6 cells
[3]
  hepatocyte CLint: < 3 µL/min/1e6 cells
[7]; liver microsomes
  microsomal CLint: 6.33 µL/min/mg

## C[C@@H]1CN(C(=O)N[C@H](Cc2ccc(F)cc2)C(=O)N2CCC(C(=O)NC(C)(C)C)(C3CCCCC3)CC2)C[C@H](C)N1
[1]
  hepatocyte CLint: 10.7 µL/min/1e6 cells
[5]
  fraction unbound at 5 h: 0.0872

## N#CCC(CNc1ncc(C(F)(F)F)cc1Cl)OC(=O)c1c(F)cccc1F (centres undefined)
[1]
  hepatocyte CLint: > 150 µL/min/1e6 cells
[3]
  hepatocyte CLint: > 150 µL/min/1e6 cells
[7]; liver microsomes
  microsomal CLint: > 150 µL/min/mg

## Cc1ccc2c(c1)c(Sc1ccc(S(C)(=O)=O)cc1)c(C)n2CC(=O)O
[1]
  hepatocyte CLint: < 3 µL/min/1e6 cells
[2]
  logD: -0.08
[7]; liver microsomes
  microsomal CLint: < 3 µL/min/mg
[6]
  fraction unbound at 5 h: 0.0081

## Cc1c(Oc2ccc(Cl)cc2)c2c(NS(C)(=O)=O)cccc2n1CC(=O)O
[1]
  hepatocyte CLint: < 3 µL/min/1e6 cells
[2]
  logD: -0.98
[7]; microsomes
  microsomal CLint: < 3 µL/min/mg
[6]
  fraction unbound at 5 h: 0.0374

## O=c1[nH]c2c(O)ccc([C@@H](O)CNCCc3ccc(CNCCc4ccccn4)cc3)c2s1
[1]
  hepatocyte CLint: < 3 µL/min/1e6 cells
[2]
  logD: -0.25
[5]
  fraction unbound at 5 h: 0.483

## CCOC(=O)/C=C/[C@H](C[C@@H]1CCNC1=O)NC(=O)[C@@H](CC(=O)[C@@H](NC(=O)c1cc(C)on1)C(C)C)Cc1ccc(F)cc1
[1]
  hepatocyte CLint: 40.7 µL/min/1e6 cells
[2]
  logD: 2.8
[3]
  hepatocyte CLint: > 150 µL/min/1e6 cells
[7]; liver microsomes
  microsomal CLint: 105 µL/min/mg

## NC1(c2ccc(-c3nn4ccnc4cc3-c3ccccc3)cc2)CCC1
[1]
  hepatocyte CLint: 7.76 µL/min/1e6 cells
[3]
  hepatocyte CLint: > 150 µL/min/1e6 cells

## NC1(c2ccc(-c3nc4ccccn4c3-c3ccccc3)cc2)CCC1
[1]
  hepatocyte CLint: 18.2 µL/min/1e6 cells
[3]
  hepatocyte CLint: > 150 µL/min/1e6 cells

## NC1(c2ccc(-c3ncc4nccn4c3-c3ccccc3)cc2)CCC1
[1]
  hepatocyte CLint: < 3 µL/min/1e6 cells
[3]
  hepatocyte CLint: 16.2 µL/min/1e6 cells

## CC1CNC(Nc2c(Cl)cccc2Cl)=N1 (centres undefined)
[1]
  hepatocyte CLint: < 3 µL/min/1e6 cells
[5]
  fraction unbound at 5 h: 0.64

## O=S(=O)(Nc1ccc2sc(CO)nc2c1)c1ccc(Br)cc1
[1]
  hepatocyte CLint: 24.6 µL/min/1e6 cells
[5]
  fraction unbound at 5 h: 0.0018

## O=C(CCCc1ccc2cccnc2n1)NCc1cc(-c2ccc(F)c(C(F)(F)F)c2)no1
[1]
  hepatocyte CLint: 19.9 µL/min/1e6 cells
[5]
  fraction unbound at 5 h: 0.0119
[6]
  fraction unbound at 5 h: 0.0009

## Cc1nn(C)c2cc(N3CCN(C(=O)[C@@H]4CCCC[C@H]4C(=O)NC4(C#N)CC4)[C@H](C)C3)ccc12
[1]
  hepatocyte CLint: 7.41 µL/min/1e6 cells
[3]
  hepatocyte CLint: 8.13 µL/min/1e6 cells

## N#Cc1ccc(OC2CCN(C[C@H](O)CNC(=O)c3c[nH]c(=O)c4ccccc34)CC2)cc1Cl
[1]
  hepatocyte CLint: < 3 µL/min/1e6 cells
[2]
  logD: 2.56
[3]
  hepatocyte CLint: 15 µL/min/1e6 cells
[6]
  fraction unbound at 5 h: 0.197

## C[C@H](CO)Nc1nc(SCc2ccccc2F)nc2nc(N)sc12
[1]
  hepatocyte CLint: 5.75 µL/min/1e6 cells
[2]
  logD: 3.12
[3]
  hepatocyte CLint: 19 µL/min/1e6 cells
[7]; microsomes
  microsomal CLint: 8.13 µL/min/mg

## CCC[C@H](CO)Nc1nc(S[C@@H](C)c2cccc(C#N)c2)nc2[nH]c(=O)sc12
[1]
  hepatocyte CLint: 22.4 µL/min/1e6 cells
[2]
  logD: 3.7
[5]
  fraction unbound at 5 h: 0.0008
[7]; liver microsomes
  microsomal CLint: 52.5 µL/min/mg
[6]
  fraction unbound at 5 h: 0.0007

## Cn1sc(=O)c2cc(S(N)(=O)=O)ccc21
[1]
  hepatocyte CLint: 27.5 µL/min/1e6 cells
[2]
  logD: 0.3
[3]
  hepatocyte CLint: 17.4 µL/min/1e6 cells

## O=c1[nH]c2ccccc2n1C1CCN(Cc2ccc(-c3nc4ccccc4cc3-c3ccccc3)cc2)CC1
[1]
  hepatocyte CLint: < 3 µL/min/1e6 cells
[3]
  hepatocyte CLint: 35.5 µL/min/1e6 cells

## CC(CO)(CO)Nc1nc(SCc2cccc(F)c2F)nc2nc(N)sc12
[1]
  hepatocyte CLint: 4.92 µL/min/1e6 cells
[2]
  logD: 2.87
[3]
  hepatocyte CLint: 7 µL/min/1e6 cells
[6]
  fraction unbound at 5 h: 0.129

## Cc1ccc(NC(=O)c2cccc(N(C)S(C)(=O)=O)c2)cc1NC(=O)c1ccc2ncccc2c1
[1]
  hepatocyte CLint: < 3 µL/min/1e6 cells
[3]
  hepatocyte CLint: 72.4 µL/min/1e6 cells

## COC(=O)c1ccc(C)c(NS(=O)(=O)c2ccc3c(c2)c(=O)sn3C)c1
[1]
  hepatocyte CLint: > 150 µL/min/1e6 cells
[2]
  logD: 2.6
[3]
  hepatocyte CLint: > 150 µL/min/1e6 cells

## COC(=O)C1=C(C)NC(C)=C(C(=O)OC(C)C)[C@@H]1c1cccc2nonc12 [(R)-ISRADIPINE]
[1]
  hepatocyte CLint: 126 µL/min/1e6 cells
[2]
  logD: 3.77
[3]
  hepatocyte CLint: > 150 µL/min/1e6 cells

## C=CCc1ccccc1OCC(O)CNC(C)C (centres undefined) [ALPRENOLOL]
[1]
  hepatocyte CLint: 13.2 µL/min/1e6 cells
[2]
  logD: 0.99
[3]
  hepatocyte CLint: > 150 µL/min/1e6 cells

## COc1ccccc1Oc1c(NS(=O)(=O)c2ccc(C(C)(C)C)cc2)nc(-c2ncccn2)nc1OCCO [BOSENTAN]
[1]
  hepatocyte CLint: 4.79 µL/min/1e6 cells
[2]
  logD: 1.03
[5]
  fraction unbound at 5 h: 0.0122
[7]; liver microsomes
  microsomal CLint: 15.1 µL/min/mg
[6]
  fraction unbound at 5 h: 0.013

## CCc1cccc2cc(C(O)CNC(C)(C)C)oc12 (centres undefined) [BUFURALOL]
[1]
  hepatocyte CLint: 8.71 µL/min/1e6 cells
[3]
  hepatocyte CLint: > 150 µL/min/1e6 cells
[6]
  fraction unbound at 5 h: 0.0801

## COc1ccccc1OCCNCC(O)COc1cccc2[nH]c3ccccc3c12 (centres undefined) [CARVEDILOL]
[1]
  hepatocyte CLint: 26.3 µL/min/1e6 cells
[5]
  fraction unbound at 5 h: 0.0262
[7]; microsomes
  microsomal CLint: 41.7 µL/min/mg

## CCC1(C2=NCCN2)Cc2ccccc2O1 (centres undefined) [EFAROXAN]
[1]
  hepatocyte CLint: < 3 µL/min/1e6 cells
[5]
  fraction unbound at 5 h: 0.76

## CCOc1ccc2ccc(=O)oc2c1 [ETHOXYCOUMARIN]
[1]
  hepatocyte CLint: 35.5 µL/min/1e6 cells
[2]
  logD: 2.2
[3]
  hepatocyte CLint: 64.6 µL/min/1e6 cells
[4]
  solubility thermodynamic: 1000 µM (≈ 190 µg/mL)

## C#Cc1cccc(Nc2ncnc3cc4c(cc23)OCCOCCOCCO4)c1 [ICOTINIB]
[1]
  hepatocyte CLint: 3.55 µL/min/1e6 cells
[3]
  hepatocyte CLint: 21.9 µL/min/1e6 cells

## CC1Cc2ccccc2N1NC(=O)c1ccc(Cl)c(S(N)(=O)=O)c1 (centres undefined) [INDAPAMIDE]
[1]
  hepatocyte CLint: 4.9 µL/min/1e6 cells
[2]
  logD: 1.83
[3]
  hepatocyte CLint: 13.2 µL/min/1e6 cells
[6]
  fraction unbound at 5 h: 0.204
[4]
  solubility thermodynamic: 151 µM (≈ 55.4 µg/mL)

## CCN1CCN(c2ccc(Nc3cc(N(C)C(=O)Nc4c(Cl)c(OC)cc(OC)c4Cl)ncn3)cc2)CC1 [INFIGRATINIB]
[1]
  hepatocyte CLint: 28.8 µL/min/1e6 cells
[2]
  logD: 3.7
[3]
  hepatocyte CLint: 87.1 µL/min/1e6 cells
[4]
  solubility thermodynamic: 0.5 µM (≈ 0.28 µg/mL)

## CS(=O)(=O)N1CCc2c(-c3cnc(N)nc3)nc(N3CCOCC3)nc21 [IZORLISIB]
[1]
  hepatocyte CLint: < 3 µL/min/1e6 cells
[2]
  logD: 1.2
[3]
  hepatocyte CLint: 5.37 µL/min/1e6 cells
[4]
  solubility thermodynamic: 1.7 µM (≈ 0.642 µg/mL)

## Cc1oncc1C(=O)Nc1ccc(C(F)(F)F)cc1 [LEFLUNOMIDE]
[1]
  hepatocyte CLint: < 3 µL/min/1e6 cells
[2]
  logD: 3.9
[3]
  hepatocyte CLint: 24 µL/min/1e6 cells
[4]
  solubility thermodynamic: 67.6 µM (≈ 18.3 µg/mL)

## C[C@H]1C[C@@H]2[C@H]([C@@H](O)C[C@@]3(C)[C@H]2CC[C@]3(O)C(=O)CO)[C@@]2(C)C=CC(=O)C=C12 [METHYLPREDNISOLONE]
[1]
  hepatocyte CLint: 9.12 µL/min/1e6 cells
[2]
  logD: 2.12
[3]
  hepatocyte CLint: > 150 µL/min/1e6 cells
[6]
  fraction unbound at 5 h: 0.201

## CC#C[C@]1(O)CC[C@H]2[C@@H]3CCC4=CC(=O)CCC4=C3[C@@H](c3ccc(N(C)C)cc3)C[C@@]21C [MIFEPRISTONE]
[1]
  hepatocyte CLint: 26.9 µL/min/1e6 cells
[7]; liver microsomes
  microsomal CLint: 79 µL/min/mg
[6]
  fraction unbound at 5 h: 0.0015
[4]
  solubility thermodynamic: 1.9 µM (≈ 0.816 µg/mL)

## CCS(=O)(=O)CCCC12CCC(c3nnc(-c4ccccc4C(F)(F)F)n3C)(CC1)CC2 [MK-0736]
[1]
  hepatocyte CLint: < 3 µL/min/1e6 cells
[3]
  hepatocyte CLint: < 3 µL/min/1e6 cells
[7]; liver microsomes
  microsomal CLint: < 3 µL/min/mg

## CNC(=O)c1ccc(C)c(-n2c(C)cc(OCc3ccc(F)cc3F)c(Br)c2=O)c1 [PH-797804]
[1]
  hepatocyte CLint: < 3 µL/min/1e6 cells
[2]
  logD: 2.8
[5]
  fraction unbound at 5 h: 0.0183
[4]
  solubility thermodynamic: 21.4 µM (≈ 10.2 µg/mL)

## CCCN1CCCC[C@H]1C(=O)Nc1c(C)cccc1C [ROPIVACAINE]
[1]
  hepatocyte CLint: 15.5 µL/min/1e6 cells
[5]
  fraction unbound at 5 h: 0.511

## CO[C@H]1C[C@@H]2CC[C@@H](C)[C@@](O)(O2)C(=O)C(=O)N2CCCC[C@H]2C(=O)O[C@H]([C@H](C)C[C@@H]2CC[C@@H](O)[C@H](OC)C2)CC(=O)[C@H](C)/C=C(\C)[C@@H](O)[C@@H](OC)C(=O)[C@H](C)C[C@H](C)/C=C/C=C/C=C/1C [SIROLIMUS]
[1]
  hepatocyte CLint: 50.1 µL/min/1e6 cells
[3]
  hepatocyte CLint: > 150 µL/min/1e6 cells

## CCCCNC(=O)NS(=O)(=O)c1ccc(C)cc1 [TOLBUTAMIDE]
[1]
  hepatocyte CLint: 6.31 µL/min/1e6 cells
[3]
  hepatocyte CLint: 6.61 µL/min/1e6 cells
[7]; microsomes
  microsomal CLint: 6.31 µL/min/mg
